Results published in EP1650209A1, “Griseusin derivatives and their use as antitumor agents” (Oncotest GmbH, priority 2004, dated 2006).
Values after ≈ are worked out from the molar mass of the structure shown.

Key:
Assay in all cases: Clonogenic assay, colony formation of tumor stem cells from xenografts
Type in all cases: cell-based, human
BXF 1299 = conditions: Bladder, xenograft BXF 1299, colony formation
Description: (§1) Using various human cancer xenografts in vitro, the concentrations of compound B which inhibit formation of tumor colonies of tumor stem cells by 50% (IC50) and 70% (IC70) are determined in a clonogenic assay. Specifically, each solid tumor of bladder cancer (BXF 1036 and BXF 1299), cervical cancer (CEXF 633 and CEXF 773), colic cancer (CXF 1103, CXF 158, CXF 1729, CXF 264 and CXF 280), gastric cancer (GXF 251 and GXF 97), head and neck cancer (HNXF 536), liver cancer (LIXF 575), non small cell lung cancer comprising adeno, squamous epithelium and large cell carcinoma (LXFA 1012, LXFA 289, LXFA 297, LXFA 526, LXFA 592, LXFA 629, LXFA 677, LXFE 409, LXFL 1072, LXFL 430LX and LXFL 529), small cell lung cancer (LXFS 650), mammary cancer (MAXF 1162, MAXF 1384, MAXF 401, MAXF 449, MAXF 574, MAXF 583, MAXF 713 and MAXF 857), melanoma (MEXF 1341, MEXF 462, MEXF 535 and MEXF 989), ovary cancer (OVXF 899), pancreatic cancer (PAXF 546 and PAXF 736), prostate cancer (DU-145 and PC3M), pleuramesothelioma (PXF 1752), renal cancer (RXF 1220, RXF 1393, RXF 393, RXF 631 and RXF 944LX), and sarcoma (SXF 1301 and SXF 463) engrafted on RPMI nu/nu thymus aplastic nude mice were explanted, disaggregated by mincing and enzymatic digestion for 50 minutes using 125 U/mL DNAse I, 41 U/mL collagenase IV, 100 U/ml hyaluronidase III, and 1 U/mL dispase I, and passed through sieves of 200 µm and 50 µm mesh size and washed twice with sterile PBS-buffer to remove cell aggregated from single cells. The clonogenic assay was performed in a 24 multiwell format. Each of the resulting single cell suspensions was added at a density of 2·10^4 to 6·10^4 cells per well to 0.2 ml of Iscove's Modified Dulbecco's Medium (IMDM) containing 20% fetal calf serum and 0.01% gentamicin supplemented with 0.4% (w/v) agar, and plated onto a bottom layer consisting of the same culture medium containing 0.75% (w/v) agar. After 24 hours IMDM containing 20% fetal calf serum and 0.01 % gentamicin, together with a test compound, was added there to. Then, the plate was incubated at 37°C for 10 to 20 days in a humidified atmosphere of air containing 7.5% CO2. Within this period, in vitro tumor growth led to the formation of colonies with a diameter of > 50µm. Colony counts were performed with an automatic image analysis system (OMNICON 3600). 24 hours prior to evaluation, vital colonies were stained with a vital staining dye. Therefore, 100 µl of a sterile aqueous solution of 2-(4-iodophenyl)-3-(4-nitrophenyl)-5-phenyltetrazolium chloride (1 mg/ml) were added to each well of the plate, and plates were incubated for 24 hours at 37°C in a humidified atmosphere of air containing 7.5% CO2. Inhibition of colony formation was expressed as test versus untreated control (T/C-value [%]). IC50 and IC70 values were determined by plotting compound concentration versus cell viability. Table 3: Inhibition of Colony Formation of Tumor Stem Cells by griseusin derivative B

LXFA 677 = conditions: Lung, non small cell, xenograft LXFA 677, colony formation
Description: as §1

LXFE 409 = conditions: Lung, non small cell, xenograft LXFE 409, colony formation
Description: as §1

MEXF 1341 = conditions: Melanoma, xenograft MEXF 1341, colony formation
Description: as §1

MAXF 401 = conditions: Breast, xenograft MAXF 401, colony formation
Description: as §1

OVXF 899 = conditions: Ovary, xenograft OVXF 899, colony formation
Description: as §1

BXF 1036 = conditions: Bladder, xenograft BXF 1036, colony formation
Description: as §1

MAXF 713 = conditions: Breast, xenograft MAXF 713, colony formation
Description: as §1

GXF 251 = conditions: Stomach, xenograft GXF 251, colony formation
Description: as §1

CXF 280 = conditions: Colon, xenograft CXF 280, colony formation
Description: as §1

CXF 158 = conditions: Colon, xenograft CXF 158, colony formation
Description: as §1

MAXF 1384 = conditions: Breast, xenograft MAXF 1384, colony formation
Description: as §1

PAXF 736 = conditions: Pancreas, xenograft PAXF 736, colony formation
Description: as §1

IC50 (BXF 1299): 1.107 µg/mL (≈ 2.77 µM)
IC50 (LXFA 677): 0.974 µg/mL (≈ 2.43 µM)
IC50 (LXFE 409): 1.732 µg/mL (≈ 4.33 µM)
IC50 (MEXF 1341): 0.462 µg/mL (≈ 1.15 µM)
IC50 (MAXF 401): 0.478 µg/mL (≈ 1.19 µM)
IC50 (OVXF 899): 0.468 µg/mL (≈ 1.17 µM)
IC50 (BXF 1036): 1.743 µg/mL (≈ 4.35 µM)
IC50 (MAXF 713): 0.498 µg/mL (≈ 1.24 µM)
IC50 (GXF 251): 0.333 µg/mL (≈ 0.832 µM)
IC50 (CXF 280): 0.379 µg/mL (≈ 0.947 µM)
IC50 (CXF 158): 0.126 µg/mL (≈ 0.315 µM)
IC50 (MAXF 1384): 0.606 µg/mL (≈ 1.51 µM)
IC50 (PAXF 736): 0.246 µg/mL (≈ 0.614 µM)
Compound: C[C@@H]1CC(=O)[C@@H](O)[C@]2(O1)O[C@@H]1CC(=O)O[C@@H]1C1=C2C(=O)c2c(O)cccc2C1=O [Compound B, 4'-dehydro-deacetylgriseusin A]
IC70 (BXF 1299): 1.662 µg/mL (≈ 4.15 µM)
IC70 (LXFA 677): 8.063 µg/mL (≈ 20.1 µM)
IC70 (LXFE 409): 2.249 µg/mL (≈ 5.62 µM)
IC70 (MEXF 1341): 0.673 µg/mL (≈ 1.68 µM)
IC70 (MAXF 401): 0.782 µg/mL (≈ 1.95 µM)
IC70 (OVXF 899): 0.731 µg/mL (≈ 1.83 µM)
IC70 (BXF 1036): 2.271 µg/mL (≈ 5.67 µM)
IC70 (MAXF 713): 0.700 µg/mL (≈ 1.75 µM)
IC70 (GXF 251): 0.677 µg/mL (≈ 1.69 µM)
IC70 (CXF 280): 0.609 µg/mL (≈ 1.52 µM)
IC70 (CXF 158): 0.358 µg/mL (≈ 0.894 µM)
IC70 (MAXF 1384): 0.750 µg/mL (≈ 1.87 µM)
IC70 (PAXF 736): 0.452 µg/mL (≈ 1.13 µM)
